Laboratory results as given in patent publication US9534259B2, “DOT1 histone methyltransferases as a target for identifying therapeutic agents for leukemia” (The University of North Carolina at Chapel Hill, priority 2003, dated 2017).
“Also recorded” adds a separate entry of the source. Blank lines part the entries; values can stand above or below the molecule they belong to. Ends that are not written are not given here. Peptide text beside a SMILES is read from it. * marks the point of attachment. Cbz = O=C(OCc1ccccc1)*

Columns and labels:
[1] = tested on: CRM1-mediated nuclear export of hDOT1L NESs fused with EGFP; format: cell-based, human; settings: 20 nM, eight hours after treatment, U2OS cells, FIG. 10E
Procedure: To further characterize the nuclear export ability of the three NESs identified, it was determined whether the NESs were involved in active nuclear export mediated by the CRM1 (chromosomal region maintenance) pathway. CRM1 was initially identified as a S. pombe protein whose mutation affects higher order chromosome structure (Adachi and Yanagida (1989) J. Cell Biol. 108:1195-1207). Subsequent studies indicate that CRM1 is an export receptor for Leucine-rich nuclear export signals (Fornerod, et al. (1997) Cell 90:1051-1060; Ossareh-Nazari, et al. (1997) Science 278:141-144; Stade, et al. (1997) Cell 90:1041-1050). […] To investigate the effect of LMB treatment on the nuclear export ability of the NESs, U2OS cells were transfected with constructs encoding each of the three NESs fused with EGFP in the presence or absence of 20 nM of LMB. Eight hours after LMB treatment, green fluorescence was observed under a microscope in living cells.

[2] = tested on: proteasome (stability of ubiquitinated FLAG-Tat and FLAG-hDOT1L); test: In vivo ubiquitination assay in 293T cells with proteasome inhibitor; format: cell-based, human; set-up: dose or concentration left out as unconfirmed; settings: HA-Ub co-expressed
Procedure: pcDNA3b-FLAG®-hDOT1L and pcDNA3b-FLAG®-Tat were transfected to 293T cells with or without pHA-Ubiquitin (Ub) by using FUGENE™ 6 transfection reagent (Roche Diagnostics, Indianapolis, Ind.). Twenty-four hours after transfection, MG132 was added at the final concentration of […], and the cells were cultured for […]. Cells were then lysed with lysis buffer (50 mM Tris-HCl, pH 7.5, 0.5 mM EDTA, 1% SDS, and 1 mM DTT), and boiled for 10 minutes before centrifugation at 14,000 rpm for 10 minutes. The supernatant was diluted by 10-fold with NP40 lysis buffer (50 mM Tris-HCl, pH 7.5, 150 mM NaCl, 0.1% NP40, 50 mM NaF, 10% glycerol, 1 mM DTT, and 1 mM PMSF), and incubated with […] of FLAG® (M2) antibody for 4 hours at 4° C. Protein G beads were then added and incubated further for one hour. The beads were washed three times with lysis buffer containing 0.5% of NP40 before eluting the protein with SDS sample buffer for SDS-PAGE analysis.
Protein ubiquitination is the major pathway for rapid protein degradation (Pickart (2001) Annu. Rev. Biochem 70:503-533). Toward this end, we asked whether hDOT1L is subjected to ubiquitination. We transfected 293T cells with a construct encoding FLAG®-hDOT1L with or without co-transfection of a construct encoding HA-tagged ubiquitin. […]

hDOT1L Δ(376-390) = molecular target: T1, hDOT1L Δ(376-390) (Homo sapiens, UniProt Q8TEK3, DEL376-390); test: Histone methyltransferase assay with peptide competition; format: biochemical; settings: 1.5, 15 or 150 μM peptide; oligo-nucleosome substrate; FIG. 6D lanes 5-8
T1 construct: GST (N, cleaved yes); made in house; host or cells: E. coli
Procedure: (§1) Histone methyltransferase assay was performed using established methods (Wang, et al. (2001) Science 293:853-857). Oligo-nucleosomes purified from HeLa cells or chicken blood cells were quantified and equal concentrations were used in each assay. Briefly, recombinant hDOT1L proteins (0.75 μM) were incubated with oligo-nucleosomes (1.5 μM) in reactions containing 20 mM Tris-HCl (pH 8.0), 4 mM EDTA, 1 mM PMSF, 0.5 mM DTT, and 0.5 μL ^3H-SAM (15 Ci/mM; NEN™ Life Science Products) for 1 hour at 30° C. For peptide competition, 1.5 μM, 15 μM, or 150 μM of positively charged C-RS10 peptide ([…] SEQ ID NO:20) were added to reactions. Reactions were stopped by addition of 7 μL of 5×SDS loading buffer and proteins were separated in an 18% SDS-PAGE. Following stain and destain of COMMASSIE® Blue, gels were treated with Rapid Autoradiography Enhancer (NEN™ Life Science Products, Boston Mass.) for 40 minutes, dried, and exposed to X-ray films. For quantitation, gel slices were excised and counted with scintillation counting. Two independent experiments were performed at the same time and average ^3H (CPM) values were used in the figures.

hDOT1L(1-416) = molecular target: T2, hDOT1L(1-416) (Homo sapiens, UniProt Q8TEK3); test: as above; format: biochemical; settings: 1.5, 15 or 150 μM peptide; oligo-nucleosome substrate; FIG. 6D lanes 1-4
T2 construct: The plasmid expressing the first 416 residues of hDOT1L, pGEX-KG/hDOT1L(1-416); GST (N, cleaved yes); made in house; host or cells: E. coli
Procedure: as §1

[3] = tested on: hDOT1L binding to HeLa mono-nucleosomes; test: Gel mobility shift assay (mono-nucleosome binding) with competitor peptide; set-up: species or system human; settings: HeLa mono-nucleosomes 1.5 μM
Procedure: Different amount of recombinant hDOT1L proteins were incubated with HeLa mono-nucleosomes (1.5 μM) under the same conditions as those in the histone methyltransferase assay, except that SAM is omitted. Following incubation for 1 hour at 30° C., samples were resolved in a 1.8% agarose gel and visualized under UV by ethidium bromide staining.
We next examined mono-nucleosome binding of hDot1(1-416) and several of its truncation variants by gel mobility shift assays (GSMA). […] Consistent with this, we could detect strong, but apparently non-sequence specific, binding of hDOT1L(1-416) with DNA extracted from mono-nucleosomes. To further probe the nature of hDOT1L-nucleosome interaction, we used a 21-residue highly charged peptide, C-RS10, containing 10 tandem repeats of arginine and serine as a competitor in our nucleosome binding and HMTase assays.

T1 sequence (Q8TEK3 with tags, fused parts or gaps DEL376-390): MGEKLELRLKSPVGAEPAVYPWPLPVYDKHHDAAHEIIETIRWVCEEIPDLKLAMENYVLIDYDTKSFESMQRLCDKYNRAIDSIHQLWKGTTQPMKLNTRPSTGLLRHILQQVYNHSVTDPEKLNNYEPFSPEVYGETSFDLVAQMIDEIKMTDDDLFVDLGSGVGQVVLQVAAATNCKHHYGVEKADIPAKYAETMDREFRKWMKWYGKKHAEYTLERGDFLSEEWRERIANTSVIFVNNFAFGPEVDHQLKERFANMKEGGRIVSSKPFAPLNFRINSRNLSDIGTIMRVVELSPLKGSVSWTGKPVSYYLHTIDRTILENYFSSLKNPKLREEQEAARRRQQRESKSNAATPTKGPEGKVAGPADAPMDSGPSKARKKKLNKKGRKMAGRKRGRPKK
T2 sequence (Q8TEK3 1-416): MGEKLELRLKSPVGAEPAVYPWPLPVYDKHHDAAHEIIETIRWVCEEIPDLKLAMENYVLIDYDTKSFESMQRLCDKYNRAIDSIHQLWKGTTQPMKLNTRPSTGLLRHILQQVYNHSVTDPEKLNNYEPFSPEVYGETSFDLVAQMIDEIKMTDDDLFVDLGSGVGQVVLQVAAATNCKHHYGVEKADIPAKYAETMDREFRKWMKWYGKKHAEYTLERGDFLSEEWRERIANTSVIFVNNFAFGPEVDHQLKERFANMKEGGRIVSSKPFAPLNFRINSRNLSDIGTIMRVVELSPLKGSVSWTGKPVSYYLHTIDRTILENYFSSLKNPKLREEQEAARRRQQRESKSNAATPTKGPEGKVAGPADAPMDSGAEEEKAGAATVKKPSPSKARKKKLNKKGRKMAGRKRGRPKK

Molecule: CCC(=C/[C@H](C)C/C=C/C(C)=C/[C@@H](C)C(=O)[C@@H](C)[C@H](O)[C@@H](C)C/C(C)=C/C(=O)O)/C=C/[C@@H]1OC(=O)C=C[C@@H]1C [LMB, Leptomycin B]
- Effect on nuclear export by NES1, NES2, NES3 fused with EGFP [1]: prevented nuclear export by all the three NESs; also recorded: can be blocked

Molecule: CC(C)C[C@@H](C=O)NC(=O)[C@H](CC(C)C)NC(=O)[C@H](CC(C)C)NC(=O)OCc1ccccc1 [MG132] (Cbz-Leu-Leu-Leu-aldehyde)
- Stabilization of ubiquitinated FLAG-hDOT1L ([2]; FIG. 8A lanes 4 and 5): did not appear to stabilize
- Stabilization of ubiquitinated Tat ([2]; FIG. 8A lanes 6 and 7): successfully stabilized ubiquitinated Tat

- HMTase activity of Δ(376-390) in presence of competitor peptide (hDOT1L Δ(376-390)): effectively competed
- HMTase activity of hDOT1L(1-416) in presence of competitor peptide (hDOT1L(1-416)): effectively competed
Molecule: CRSRSRSRSRSRSRSRSRSRS
- Effect of peptide on mono-nucleosome migration in GSMA [3]: prevented mono-nucleosomes from entering the gel well
